The compounds below were run against RIPK3 (Homo sapiens (Human), UniProt Q9Y572) (assay: RIPK3 HTRF Kinase Assay). Details: RIPK3 1 nM; HTRF probe 23 nM; 60 min at room temperature; read-out: IC50 for Inhibition of RIPK3.
Type: binding

Sequence of RIPK3 (Q9Y572 whole entry, species assumed): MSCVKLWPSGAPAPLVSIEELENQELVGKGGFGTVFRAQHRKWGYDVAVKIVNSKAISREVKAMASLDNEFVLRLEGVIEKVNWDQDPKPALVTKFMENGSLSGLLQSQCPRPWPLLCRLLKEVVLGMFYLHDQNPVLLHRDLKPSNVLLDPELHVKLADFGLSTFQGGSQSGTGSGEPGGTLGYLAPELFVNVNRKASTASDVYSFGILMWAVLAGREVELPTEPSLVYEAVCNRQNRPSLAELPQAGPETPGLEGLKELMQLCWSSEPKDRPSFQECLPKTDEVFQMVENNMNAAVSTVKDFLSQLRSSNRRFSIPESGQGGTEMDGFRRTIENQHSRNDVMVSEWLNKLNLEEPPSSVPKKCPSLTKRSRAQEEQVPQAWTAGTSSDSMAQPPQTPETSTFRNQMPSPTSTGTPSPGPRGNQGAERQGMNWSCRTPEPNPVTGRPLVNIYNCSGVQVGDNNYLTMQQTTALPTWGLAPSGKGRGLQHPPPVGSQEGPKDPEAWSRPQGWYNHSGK

Compound	IC50 [nM]
CC(C)CC(=O)Nc1cc(-c2c(-c3ccc(F)cc3)c3c(n2CC2CCOCC2)CCNC3=O)ccn1 [Example 93]	100 to 15000
CCCC(=O)Nc1cc(-c2c(-c3ccc(F)cc3)c3c(n2CC2CCOCC2)CCNC3=O)ccn1 [Example 94]	100 to 15000
CCOC(=O)Nc1cc(-c2c(-c3ccc(F)cc3)c3c(n2CC2CCOCC2)CCNC3=O)ccn1 [Example 95]	31 to 100
CCNC(=O)Nc1cc(-c2c(-c3ccc(F)cc3)c3c(n2CC2CCOCC2)CCNC3=O)ccn1 [Example 97]	100 to 15000
CC(=O)Nc1cc(-c2c(-c3ccc(F)cc3)c3c(n2Cc2ccc(F)c(C#N)c2)CCNC3=O)ccn1 [Example 99]	31 to 100
CC(=O)Nc1cc(-c2c(-c3ccc(F)cc3)c3c(n2Cc2ccc(F)cc2C#N)CCNC3=O)ccn1 [Example 100]	< 30
CC(=O)Nc1cc(-c2c(-c3ccc(F)cc3)c3c(n2Cc2ccc(C(F)(F)F)cc2F)CCNC3=O)ccn1 [Example 101]	< 30
CC(=O)Nc1cc(-c2c(-c3ccc(F)cc3)c3c(n2Cc2ccc(C(F)(F)F)cc2)CCNC3=O)ccn1 [Example 102]	100 to 15000
Cc1ccc(-c2c3c(n(CC4CCOCC4)c2-c2ccncc2)CCNC3=O)c(C)c1 [Example 103]	100 to 15000
COc1ccc(-c2c3c(n(CC4CCOCC4)c2-c2ccncc2)CCNC3=O)cc1 [Example 104]	100 to 15000
O=C1NCCc2c1c(-c1cccc(C(F)(F)F)c1)c(-c1ccncc1)n2CC1CCOCC1 [Example 105]	100 to 15000
CC(=O)Nc1cccc(-c2c3c(n(CC4CCOCC4)c2-c2ccncc2)CCNC3=O)c1 [Example 106]	100 to 15000
COc1ccc(-c2c3c(n(CC4CCOCC4)c2-c2ccncc2)CCNC3=O)cn1 [Example 107]	100 to 15000
CN(C)c1cccc(-c2c3c(n(CC4CCOCC4)c2-c2ccncc2)CCNC3=O)c1 [Example 109]	100 to 15000
O=C1NCCc2c1c(-c1cccc(OC(F)(F)F)c1)c(-c1ccncc1)n2CC1CCOCC1 [Example 110]	100 to 15000
O=C1NCCc2c1c(-c1cnc3ccccc3c1)c(-c1ccncc1)n2CC1CCOCC1 [Example 111]	100 to 15000
O=C1NCCc2c1c(-c1cccc3ccncc13)c(-c1ccncc1)n2CC1CCOCC1 [Example 112]	100 to 15000
COc1ccc(-c2c3c(n(Cc4ccc(F)cc4C#N)c2-c2ccncc2)CCNC3=O)cc1OC [Example 113]	100 to 15000
N#Cc1cc(F)ccc1Cn1c2c(c(-c3cccc(OC(F)(F)F)c3)c1-c1ccncc1)C(=O)NCC2 [Example 114]	31 to 100
N#Cc1cc(F)ccc1Cn1c2c(c(-c3ccc(F)c(F)c3)c1-c1ccncc1)C(=O)NCC2 [Example 115]	< 30
N#Cc1cc(F)ccc1Cn1c2c(c(-c3ccc4ncccc4c3)c1-c1ccncc1)C(=O)NCC2 [Example 116]	100 to 15000

Compound	IC50 [nM]
COc1cc(F)cc(-c2c3c(n(Cc4ccc(F)cc4C#N)c2-c2ccncc2)CCNC3=O)c1 [Example 117]	31 to 100
Cn1ccc2cc(-c3c4c(n(Cc5ccc(F)cc5C#N)c3-c3ccncc3)CCNC4=O)ccc21 [Example 118]	31 to 100
COc1ccc(-c2c3c(n(Cc4ccc(F)cc4C#N)c2-c2ccncc2)CCNC3=O)cc1 [Example 121]	31 to 100
N#Cc1cc(F)ccc1Cn1c2c(c(-c3ccc(OC(F)(F)F)cc3)c1-c1ccncc1)C(=O)NCC2 [Example 122]	100 to 15000
N#Cc1cc(F)ccc1Cn1c2c(c(-c3cccc(C(F)(F)F)c3)c1-c1ccncc1)C(=O)NCC2 [Example 123]	< 30
COc1ccc(-c2c3c(n(Cc4ccc(F)cc4C#N)c2-c2ccncc2)CCNC3=O)cn1 [Example 124]	< 30
CS(=O)(=O)c1cccc(-c2c3c(n(Cc4ccc(F)cc4C#N)c2-c2ccncc2)CCNC3=O)c1 [Example 126]	100 to 15000
N#Cc1cc(F)ccc1Cn1c2c(c(-c3ccsc3)c1-c1ccncc1)C(=O)NCC2 [Example 128]	< 30
N#Cc1cc(F)ccc1Cn1c2c(c(-c3cccc(Cl)c3Cl)c1-c1ccncc1)C(=O)NCC2 [Example 129]	31 to 100
N#Cc1cc(F)ccc1Cn1c2c(c(-c3ccc(Cl)s3)c1-c1ccncc1)C(=O)NCC2 [Example 130]	< 30
COc1ccncc1-c1c2c(n(Cc3ccc(F)cc3C#N)c1-c1ccncc1)CCNC2=O [Example 131]	100 to 15000
N#Cc1cc(F)ccc1Cn1c2c(c(-c3cncc4ccccc34)c1-c1ccncc1)C(=O)NCC2 [Example 132]	100 to 15000
N#Cc1cc(F)ccc1Cn1c2c(c(-c3cccc(S(N)(=O)=O)c3)c1-c1ccncc1)C(=O)NCC2 [Example 133]	100 to 15000
N#Cc1cc(F)ccc1Cn1c2c(c(-c3cccc(CO)c3)c1-c1ccncc1)C(=O)NCC2 [Example 134]	< 30
N#Cc1cc(F)ccc1Cn1c2c(c(-c3ccc(OCc4ccccc4)cc3)c1-c1ccncc1)C(=O)NCC2 [Example 135]	100 to 15000
N#Cc1cc(F)ccc1Cn1c2c(c(-c3ccc(Cl)c(Cl)c3)c1-c1ccncc1)C(=O)NCC2 [Example 136]	< 30
N#Cc1cc(F)ccc1Cn1c2c(c(-c3cc(Cl)cc(Cl)c3)c1-c1ccncc1)C(=O)NCC2 [Example 138]	< 30
N#Cc1cccc(-c2c3c(n(Cc4ccc(F)cc4C#N)c2-c2ccncc2)CCNC3=O)c1 [Example 139]	31 to 100
COc1cc(-c2c3c(n(Cc4ccc(F)cc4C#N)c2-c2ccncc2)CCNC3=O)ccn1 [Example 140]	< 30
N#Cc1cc(F)ccc1Cn1c2c(c(-c3ccoc3)c1-c1ccncc1)C(=O)NCC2 [Example 141]	< 30
Cc1csc(-c2c3c(n(Cc4ccc(F)cc4C#N)c2-c2ccncc2)CCNC3=O)c1 [Example 142]	< 30

Compound	IC50 [nM]
Cc1cscc1-c1c2c(n(Cc3ccc(F)cc3C#N)c1-c1ccncc1)CCNC2=O [Example 143]	100 to 15000
N#Cc1cc(F)ccc1Cn1c2c(c(/C=C/c3ccccc3)c1-c1ccncc1)C(=O)NCC2 [Example 145]	31 to 100
O=C1NCCc2c1c(-c1ccc(F)cc1)c(-c1ccnc(NCCO)c1)n2Cc1ccc(C(F)(F)F)cc1F [Example 146]	31 to 100
COCCNc1cc(-c2c(-c3ccc(F)cc3)c3c(n2Cc2ccc(C(F)(F)F)cc2F)CCNC3=O)ccn1 [Example 147]	100 to 15000
CCC(=O)Nc1cc(-c2c(-c3ccc(F)cc3)c3c(n2Cc2ccc(C(F)(F)F)cc2F)CCNC3=O)ccn1 [Example 149]	31 to 100
COCC(=O)Nc1cc(-c2c(-c3ccc(F)cc3)c3c(n2Cc2ccc(C(F)(F)F)cc2F)CCNC3=O)ccn1 [Example 150]	31 to 100
CC1(C)CNC(=O)c2c(-c3ccc(F)cc3)c(-c3ccncc3)n(CC3CCOCC3)c21 [Example 152, 3-(4-Fluorophenyl)-7,7-dimethyl-2-(pyridin-4-yl)-1-((tetrahydro-2H-pyran-4-yl)methyl)-6,7-dihydro-1H-pyrrolo[3,2-c]pyridin-4(5H)-one]	100 to 15000
CC1(C)CNC(=O)c2c1[nH]c(-c1ccncc1)c2-c1ccc(F)cc1 [Example 153, 3-(4-Fluorophenyl)-7,7-dimethyl-2-(pyridin-4-yl)-6,7-dihydro-1H-pyrrolo[3,2-c]pyridin-4(5H)-one]	< 30
Cn1c(-c2ccncc2)c(-c2ccc(F)cc2)c2c1C(C)(C)CNC2=O [Example 154, 3-(4-Fluorophenyl)-1,7,7-trimethyl-2-(pyridin-4-yl)-6,7-dihydro-1H-pyrrolo[3,2-c]pyridin-4(5H)-one]	100 to 15000
O=c1[nH]ccc2c1c(-c1ccc(F)cc1)c(-c1ccnc(Cl)c1)n2Cc1ccc(C(F)(F)F)cc1F [Example 155, 2-(2-Chloropyridin-4-yl)-1-(2-fluoro-4-(trifluoromethyl)benzyl)-3-(4-fluorophenyl)-1H-pyrrolo[3,2-c]pyridin-4(5H)-one]	100 to 15000
CCC(=O)Nc1cc(-c2c(-c3ccc(F)cc3)c3c(=O)[nH]ccc3n2Cc2ccc(C(F)(F)F)cc2F)ccn1 [Example 156, N-(4-(1-(2-Fluoro-4-(trifluoromethyl)benzyl)-3-(4-fluorophenyl)-4-oxo-4,5-dihydro-1H-pyrrolo[3,2-c]pyridin-2-yl)pyridin-2-yl)propionamide]	< 30
O=c1[nH]ccc2c1c(-c1ccc(F)cc1)c(-c1ccncc1)n2Cc1ccc(C(F)(F)F)cc1F [Example 157, 1-(2-Fluoro-4-(trifluoromethyl)benzyl)-3-(4-fluorophenyl)-2-(pyridin-4-yl)-1H-pyrrolo[3,2-c]pyridin-4(5H)-one]	< 30
Cc1ccc(S(=O)(=O)n2c3c(c(-c4ccc(F)cc4)c2-c2ccncc2)C(=O)NCC3)cc1 [Example 162, 3-(4-Fluorophenyl)-2-(pyridin-4-yl)-1-tosyl-6,7-dihydro-1H-pyrrolo[3,2-c]pyridin-4(5H)-one]	100 to 15000
CC(C)(C)OC(=O)Nc1cccc(-c2c3c(n(Cc4ccc(Cl)cc4F)c2-c2ccncc2)CCNC3=O)c1 [Example 163]	31 to 100
Cc1ccc(-c2c3c(n(Cc4ccc(Cl)cc4F)c2-c2ccncc2)CCNC3=O)s1 [Example 164]	< 30
Cn1cc(-c2c3c(n(Cc4ccc(Cl)cc4F)c2-c2ccncc2)CCNC3=O)cn1 [Example 165]	100 to 15000
O=C1NCCc2c1c(-c1ccncc1F)c(-c1ccncc1)n2Cc1ccc(Cl)cc1F [Example 166]	100 to 15000
COC(=O)c1cccc(-c2c3c(n(Cc4ccc(Cl)cc4F)c2-c2ccncc2)CCNC3=O)c1 [Example 167]	100 to 15000
Cc1cc(-c2c3c(n(Cc4ccc(Cl)cc4F)c2-c2ccncc2)CCNC3=O)ccn1 [Example 168]	100 to 15000
Nc1cccc(-c2c3c(n(Cc4ccc(Cl)cc4F)c2-c2ccncc2)CCNC3=O)c1 [Example 169]	100 to 15000
CCCC(=O)Nc1cccc(-c2c3c(n(Cc4ccc(Cl)cc4F)c2-c2ccncc2)CCNC3=O)c1 [Example 170]	100 to 15000

Same assay, conditions: read-out: IC50 for Inhibition of RIPK3

Compound	IC50 [nM]
O=C1NCCc2c1c(-c1cccnc1)c(-c1ccncc1)n2CC1CCOCC1 [Example 108]	100 to 15000
N#Cc1cc(F)ccc1Cn1c2c(c(-c3cccnc3)c1-c1ccncc1)C(=O)NCC2 [Example 119]	31 to 100
N#Cc1cc(F)ccc1Cn1c2c(c(-c3cccc(-c4ccccc4)c3)c1-c1ccncc1)C(=O)NCC2 [Example 120]	100 to 15000
N#Cc1cc(F)ccc1Cn1c2c(c(-c3ccccc3-c3ccccc3)c1-c1ccncc1)C(=O)NCC2 [Example 125]	100 to 15000
